In patent publication US8192962B2, “Processes for detecting toxic substances” (Daikin Industries, Ltd., priority 2001, dated 2012):

System: Transport facilitation protein genes
Experiment: DNA chip mRNA expression in yeast, transport facilitation protein genes (Table 5)
Format: cell-based, Saccharomyces cerevisiae S288C
Outline: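 Whole-genome yeast DNA chip hybridization (65° C., >12 h) of Cy-labeled cDNA from S288C cells exposed 2 h at 25° C. to a sub-lethal toxicant dose in YPD; value is intensity relative to chemical-free control.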

SMILES: [Cl][Hg][Cl] [(3), HgCl2]
- The level of expressed mRNA in the presence of chemical substance/The level of expressed mRNA in the absence of chemical substance (yeast gene YGR224W): 1.2
- The level of expressed mRNA in the presence of chemical substance/The level of expressed mRNA in the absence of chemical substance (yeast gene YGR260W): 3.4
- The level of expressed mRNA in the presence of chemical substance/The level of expressed mRNA in the absence of chemical substance (yeast gene YGR281W): 1.3
- The level of expressed mRNA in the presence of chemical substance/The level of expressed mRNA in the absence of chemical substance (yeast gene YHL035C): 0.9
- The level of expressed mRNA in the presence of chemical substance/The level of expressed mRNA in the absence of chemical substance (yeast gene YHL040C): 1.5
- The level of expressed mRNA in the presence of chemical substance/The level of expressed mRNA in the absence of chemical substance (yeast gene YHL047C): 1.0
- The level of expressed mRNA in the presence of chemical substance/The level of expressed mRNA in the absence of chemical substance (yeast gene YHR026W): 1.9
- The level of expressed mRNA in the presence of chemical substance/The level of expressed mRNA in the absence of chemical substance (yeast gene YHR092C): 7.5
- The level of expressed mRNA in the presence of chemical substance/The level of expressed mRNA in the absence of chemical substance (yeast gene YHR094C): 5.3
- The level of expressed mRNA in the presence of chemical substance/The level of expressed mRNA in the absence of chemical substance (yeast gene YHR175W): 2.4
- The level of expressed mRNA in the presence of chemical substance/The level of expressed mRNA in the absence of chemical substance (yeast gene YIL006W): 1.4
- The level of expressed mRNA in the presence of chemical substance/The level of expressed mRNA in the absence of chemical substance (yeast gene YIL022W): 1.1
- The level of expressed mRNA in the presence of chemical substance/The level of expressed mRNA in the absence of chemical substance (yeast gene YIL056W): 6.2
- The level of expressed mRNA in the presence of chemical substance/The level of expressed mRNA in the absence of chemical substance (yeast gene YIL088C): 2.1
- The level of expressed mRNA in the presence of chemical substance/The level of expressed mRNA in the absence of chemical substance (yeast gene YJL034W): 3.0
- The level of expressed mRNA in the presence of chemical substance/The level of expressed mRNA in the absence of chemical substance (yeast gene YJL212C): 3.1
- The level of expressed mRNA in the presence of chemical substance/The level of expressed mRNA in the absence of chemical substance (yeast gene YJL219W): 3.1
- The level of expressed mRNA in the presence of chemical substance/The level of expressed mRNA in the absence of chemical substance (yeast gene YJR077C): 2.0
- The level of expressed mRNA in the presence of chemical substance/The level of expressed mRNA in the absence of chemical substance (yeast gene YJR106W): 1.5
- The level of expressed mRNA in the presence of chemical substance/The level of expressed mRNA in the absence of chemical substance (yeast gene YJR121W): 3.3
- The level of expressed mRNA in the presence of chemical substance/The level of expressed mRNA in the absence of chemical substance (yeast gene YKL016C): 0.7
- The level of expressed mRNA in the presence of chemical substance/The level of expressed mRNA in the absence of chemical substance (yeast gene YKL146W): 1.3
- The level of expressed mRNA in the presence of chemical substance/The level of expressed mRNA in the absence of chemical substance (yeast gene YKR039W): 1.3
- The level of expressed mRNA in the presence of chemical substance/The level of expressed mRNA in the absence of chemical substance (yeast gene YKR067W): 1.5
- The level of expressed mRNA in the presence of chemical substance/The level of expressed mRNA in the absence of chemical substance (yeast gene YLL028W): 4.6
- The level of expressed mRNA in the presence of chemical substance/The level of expressed mRNA in the absence of chemical substance (yeast gene YLR081W): 2.8
- The level of expressed mRNA in the presence of chemical substance/The level of expressed mRNA in the absence of chemical substance (yeast gene YLR295C): 1.1
- The level of expressed mRNA in the presence of chemical substance/The level of expressed mRNA in the absence of chemical substance (yeast gene YLR348C): 1.2
- The level of expressed mRNA in the presence of chemical substance/The level of expressed mRNA in the absence of chemical substance (yeast gene YLR378C): 2.6
- The level of expressed mRNA in the presence of chemical substance/The level of expressed mRNA in the absence of chemical substance (yeast gene YMR011W): 9.4
- The level of expressed mRNA in the presence of chemical substance/The level of expressed mRNA in the absence of chemical substance (yeast gene YMR162C): 1.1
- The level of expressed mRNA in the presence of chemical substance/The level of expressed mRNA in the absence of chemical substance (yeast gene YMR203W): 3.0
- The level of expressed mRNA in the presence of chemical substance/The level of expressed mRNA in the absence of chemical substance (yeast gene YNL055C): 5.5
- The level of expressed mRNA in the presence of chemical substance/The level of expressed mRNA in the absence of chemical substance (yeast gene YNL259C): 1.1
- The level of expressed mRNA in the presence of chemical substance/The level of expressed mRNA in the absence of chemical substance (yeast gene YNR072W): 0.5
- The level of expressed mRNA in the presence of chemical substance/The level of expressed mRNA in the absence of chemical substance (yeast gene YOL119C): 1.5
- The level of expressed mRNA in the presence of chemical substance/The level of expressed mRNA in the absence of chemical substance (yeast gene YOL156W): 2.5
- The level of expressed mRNA in the presence of chemical substance/The level of expressed mRNA in the absence of chemical substance (yeast gene YOL163W): 2.1
- The level of expressed mRNA in the presence of chemical substance/The level of expressed mRNA in the absence of chemical substance (yeast gene YOR035C): 0.3
- The level of expressed mRNA in the presence of chemical substance/The level of expressed mRNA in the absence of chemical substance (yeast gene YOR130C): 1.4
- The level of expressed mRNA in the presence of chemical substance/The level of expressed mRNA in the absence of chemical substance (yeast gene YOR153W): 5.1
- The level of expressed mRNA in the presence of chemical substance/The level of expressed mRNA in the absence of chemical substance (yeast gene YOR273C): 1.7
- The level of expressed mRNA in the presence of chemical substance/The level of expressed mRNA in the absence of chemical substance (yeast gene YOR316C): 1.5
- The level of expressed mRNA in the presence of chemical substance/The level of expressed mRNA in the absence of chemical substance (yeast gene YOR332W): 1.0
- The level of expressed mRNA in the presence of chemical substance/The level of expressed mRNA in the absence of chemical substance (yeast gene YOR348C): 1.2
- The level of expressed mRNA in the presence of chemical substance/The level of expressed mRNA in the absence of chemical substance (yeast gene YPL036W): 2.8
- The level of expressed mRNA in the presence of chemical substance/The level of expressed mRNA in the absence of chemical substance (yeast gene YPL134C): 1.6
- The level of expressed mRNA in the presence of chemical substance/The level of expressed mRNA in the absence of chemical substance (yeast gene YPL271W): 4.1
- The level of expressed mRNA in the presence of chemical substance/The level of expressed mRNA in the absence of chemical substance (yeast gene YPR192W): 0.9
- The level of expressed mRNA in the presence of chemical substance/The level of expressed mRNA in the absence of chemical substance (yeast gene YPR194C): 0.5
